Consider four molecules from US20080103191A1, “ENTACAPONE-DERIVATIVES” (priority 2006, published 2008).

Values after ≈ are worked out from the molar mass of the structure shown. Like-named read-outs stand apart in the source and are kept apart here. Bounds are passed on as bounds.

A short description of series [1]: Solubility in 0.1 N HCl, PBS buffer, FaSSIF and FeSSIF. It is filed as physicochemical. The note with it: thermodynamic from solid. A digest of the protocol: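 Excess compound was shaken for 10 min at ambient temperature in 0.1 N HCl (pH 1), PBS (pH 7.4), FaSSIF (pH 6.5) or FeSSIF (pH 5.0). After centrifugation, the dissolved concentration was measured by reversed-phase HPLC with UV detection at 220 nm.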

Series [2] in a line: Solubility in Labrasol and TPGS/PG formulations. The class given is physicochemical. As to the method: Selected lipophilic carbonate compounds of formula I with promising Caco-2 permeabilities are formulated with different lipids/lipophilic excipients and/or micelles forming compounds in order to increase their solubilities. The following formulations are prepared by mixing the ingredients mentioned below: • i) Formulations comprising solubilizers in the form of lipides/lipophilic excipients: • ia) Formulation comprising Labrasol® and the selected compounds of Formula I • Labrasol®: • Caprylocaproyl macrogol-8-glyceride (CAS No. 85536-07-8 and 84963-88-2). This is a mixture of mono-, di- and triesters of glycerol and of PEG 400 with medium-chain fatty acids (C8-C10) which is marketed, for example, by Gattefossé under the mark Labrasol®; Labrasol® has an HLB value (hydrophil-lipophil-balance, Griffin, W. C.: Classification of surface active agents by HLB, J. Soc. Cosmet. 1, 1949) of 14 and has the following composition by weight:
• ib) Formulation comprising NanoSolve® 5401 (Lipoid GmbH, Germany) and the selected compounds of formula I • ic) Formulation comprising TPGS/PG in a weight ratio of 25% by weight of TPGS to 75% by weight of PG and the selected compounds of formula I. • PG: propylene glycol • TPGS: Vitamin E TPGS NF (d-α-tocopheryl polyethylene glycol 1000 succinate) which is marketed, for example, by Eastman Chemical Co • ii) Formulation comprising a micelles forming agent: • iia) Aqueous formulation comprising 30% by weight of Cremophor® RH 40 (relating to the weight of the aqueous phase) in water and the selected compounds of formula I • Cremophor® RH 40: • Generic names: • Polyoxyl 40 Hydrogenated Castor Oil (USP/NF). • Macrogol-Glycerolhydroxystearat (DAB). • Polyoxyethylenglyceroltrihydroxystearat (DAC). • Cremophor RH 40 is a non-ionic solubilizer and emulsifying agent obtained by reacting 45 moles of ethylene oxide with 1 mole of hydrogenated castor oil. The main constituent of Cremophor RH 40 is glycerol polyethylene glycol oxystearate, which, together with fatty acid glycerol polyglycol esters, forms the hydrophobic part of the product. The hydrophilic part consists of polyethylene glycols and glycerol ethoxylate. Cremophor RH 40 is a white to yellowish thin paste at 20° C. The HLB value lies between 14 and 16. Cremophor RH 40 is marketed by BASF AG.
The solubility of selected compounds of formula I in these formulations is measured and compared to the solubility of the compounds in 0.1N HCl (pH 1.0), PBS buffer (pH 7.4), and two simulated gastric fluids (i.e., FaSSIF (pH 6.5) simulating fasting sate and FeSSIF (pH 5.0) simulating fed state) (see above for details).

Series [3] can be described thus: Permeability in Caco-2 cells, apical to basolateral. The class given is in vitro ADME. On the set-up: dose or concentration left out as unconfirmed. The note with it: human; 21d Caco-2 monolayer, apical pH 6.5 to basolateral pH 7.4, 60 minutes. In a few lines: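 21-day Caco-2 monolayers dosed apically at 20 mM nominal test item concentration, apical pH 6.5, basolateral pH 7.4. Basolateral receiver sampled after 60 min and quantified by HPLC or LC-MS/MS; ³H-propranolol and ³H-mannitol controls sampled at 120 min and measured by scintillation.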
In general terms: Caco-2 cells form a polarised layer with tight junctions and transporters.

Series [4] in a line: Pharmacokinetic profile of compound 15 in Labrasol, TPGS/PG or phosphate buffer in rats. It is filed as in vivo, Male Sprague-Dawley rats. Particulars: oral 10 mg/kg entacapone equivalents, FIG. 1. The procedure: The pharmacokinetics of compound 15 in rats following oral administration is tested as described in Table 15 below.
The results are summarized in FIG. 1 (The symbols in FIG. 1 have the following meanings: c (ng/mL) concentration in ng/mL, t (min) time in minutes). […] Entacapone concentration is shown in ng/mL, and time is shown in minutes.

The mark [5] stands for this setting: FaSSIF, pH 6.5, fassif, Table 11, read-out: Solubility FaSSIF pH 6.5.
The mark [6] stands for this setting: FaSSIF, pH 6.5, fassif, fasting state fluid, ambient temperature, read-out: Solubility FaSSIF Ph 6.5.
Setting [7] is: FeSSIF, pH 5, fessif, Table 11, read-out: Solubility FeSSIF pH 5.0.
Where [8] appears, read: FeSSIF, pH 5, fessif, fed state fluid, ambient temperature, read-out: Solubility FeSSIF Ph 5.0.
[9] abbreviates: PBS buffer, pH 7.4, aqueous buffer, Table 11, read-out: Solubility PBS pH 7.4.
Where [10] appears, read: PBS buffer, pH 7.4, aqueous buffer, ambient temperature, read-out: Solubility PBS Ph 7.4.
The mark [11] stands for this setting: Labrasol, oil or lipid, read-out: Solubility Labrasol ®.
[12] abbreviates: organic solvent or mixture, 25% by weight TPGS, 75% by weight PG, read-out: Solubility TPGS/PG.

For `CCCC(C)OC(=O)Oc1cc(/C=C(\C#N)C(=O)N(CC)CC)cc([N+](=O)[O-])c1O` (centres unmarked) [Compound 63, Carbonic acid 5-((E)-2-cyano-2-diethylcarbamoyl-vinyl)-2-hydroxy-3-nitro-phenyl ester 1-methyl-butyl ester], the solubility at 10 min in series [1] (0.1 N HCl, pH 1, simulated gastric fluid, Table 11, maximum solubility, read-out: Solubility 0.1N HCl pH 1.0) is 20 µg/mL (≈ 47.7 µM); in series [1] (0.1 N HCl, pH 1, simulated gastric fluid, ambient temperature, shaken 10 min, read-out: Solubility 0.1N HCl Ph 1.0), 20 µg/mL (≈ 47.7 µM); in series [1] (setting [5]) it was 750 µg/mL (≈ 1790 µM); in series [1] (setting [6]) it was 750 µg/mL (≈ 1790 µM); in series [1] (setting [7]), 170 µg/mL (≈ 405 µM); in series [1] (setting [8]), 170 µg/mL (≈ 405 µM). The solubility at 10 min in series [1] (setting [9]) and in series [1] (setting [10]) was 1230 µg/mL (≈ 2930 µM) throughout. Besides, the results for the solubility in series [2] (setting [11]) and in series [2] (setting [12]) were 10000 µg/mL (≈ 23800 µM) and 1800 µg/mL (≈ 4290 µM), respectively.

For the molecule `CCCCCCCCOC(=O)Oc1cc(/C=C(\C#N)C(=O)N(CC)CC)cc([N+](=O)[O-])c1O` [Compound 35, Carbonic acid 5-((E)-2-cyano-2-diethylcarbamoyl-vinyl)-2-hydroxy-3-nitro-phenyl ester octyl ester], the solubility at 10 min in series [1] (setting [5]) is 150 µg/mL (≈ 325 µM); in series [1] (setting [6]) it was 150 µg/mL (≈ 325 µM); in series [1] (setting [7]), 150 µg/mL (≈ 325 µM); in series [1] (setting [8]), 150 µg/mL (≈ 325 µM); in series [1] (setting [9]) it was 130 µg/mL (≈ 282 µM); in series [1] (setting [10]) it was 130 µg/mL (≈ 282 µM). The Papp A→B at 60 min in series [3] was more than 42 ×10⁻⁶ cm/s. The solubility in series [2] (setting [11]) is more than 36000 µg/mL; in series [2] (setting [12]), 2300 µg/mL (≈ 4980 µM).

With `CCN(CC)C(=O)/C(C#N)=C/c1cc(OC(=O)OCC2CCCCC2)c(O)c([N+](=O)[O-])c1` [Compound 57, Carbonic acid 5-((E)-2-cyano-2-diethylcarbamoyl-vinyl)-2-hydroxy-3-nitro-phenyl ester cyclohexylmethyl ester], the solubility at 10 min in series [1] (setting [5]) was 140 µg/mL (≈ 314 µM); in series [1] (setting [6]), 140 µg/mL (≈ 314 µM); in series [1] (setting [7]), 30 µg/mL (≈ 67.3 µM); in series [1] (setting [8]), 30 µg/mL (≈ 67.3 µM); in series [1] (setting [9]), 260 µg/mL (≈ 584 µM); in series [1] (setting [10]), 260 µg/mL (≈ 584 µM). Besides, the apparent permeability from apical to basolateral (Papp A→B) at 60 min in series [3] came out at 55 ×10⁻⁶ cm/s. For the same molecule, the solubility turned out to be 22000 µg/mL (≈ 49400 µM) in series [2] (setting [11]) and 2500 µg/mL (≈ 5610 µM) in series [2] (setting [12]).

Take `CCCCC(CC)COC(=O)Oc1cc(/C=C(\C#N)C(=O)N(CC)CC)cc([N+](=O)[O-])c1O` (centres unmarked) [Compound 15, Carbonic acid 5-((E)-2-cyano-2-diethylcarbamoyl-vinyl)-2-hydroxy-3-nitro-phenyl ester 2-ethyl-hexyl ester]: the solubility at 10 min in series [1] (setting [5]) came to 180 µg/mL (≈ 390 µM); in series [1] (setting [6]), 180 µg/mL (≈ 390 µM); in series [1] (setting [7]), 190 µg/mL (≈ 412 µM); in series [1] (setting [8]) it was 190 µg/mL (≈ 412 µM); in series [1] (setting [9]), 150 µg/mL (≈ 325 µM); in series [1] (setting [10]), 150 µg/mL (≈ 325 µM). The solubility in series [2] (setting [11]) was determined as 50000 µg/mL (≈ 108000 µM); in series [2] (setting [12]), 2400 µg/mL (≈ 5200 µM). The “plasma level of entacapone formed, compared with phosphate buffer formulation” value in series [4] (Labrasol formulation) and in series [4] (TPGS/PG formulation) was “more constant” throughout.

A word on the Papp A→B: it is how fast a substance crosses the layer from the apical side.
